Laboratory results: ChEMBL document CHEMBL1126872, “5-HT3 receptor antagonists. 3. Quinoline derivatives which may be effective in the therapy of irritable bowel syndrome” (J Med Chem, 1993)

Assays:
[1] = tested on: Rattus norvegicus; assay: Inhibition of restraint stress induced defecation by oral administration (inhibition percent at 1 mg/kg)
[2] = tested on: Rattus norvegicus; assay: Effective dose causing reduction of serotonin effect at 5 min administered iv in Bezold-Jarisch reflex test; type: functional
[3] = target: Serotonin 3 (5-HT3) receptor; assay: Binding affinity towards [3H]quipazine labeled 5-hydroxytryptamine 3 receptor sites in HG108-15; type: protein-complex assay, Cavia porcellus
[4] = tested on: Rattus norvegicus; assay: Inhibitory dose causing inhibition of restraint stress induced defecation by oral administration; type: functional; conditions: read-out: ID50 (the source's name)
[5] = tested on: Rattus norvegicus; assay: Inhibition of restraint stress induced defecation by oral administration (inhibition at 1 mg/kg)
[6] = tested on: Rattus norvegicus; assay: Inhibitory dose causing inhibition of increase in castor oil induced diarrhea by oral administration at 1 ml/rat; type: functional; conditions: read-out: ID50 (the source's name)
[7] = organism: Rattus norvegicus; assay: animal or person; type: functional; conditions: sc, dose mg/kg 1-10, route subcutaneous, read-out: ID50 (the source's name)
Description: Inhibitory dose causing inhibition of increase in 5-HT induced defecation by sc administration 1 to 10 mg/kg

[8] = organism: Rattus norvegicus; assay: animal or person; type: functional; conditions: sc, route subcutaneous, read-out: ID50 (the source's name)
Description: Inhibitory dose causing inhibition of increase in thyrotropin-releasing hormone (TRH) induced defecation by sc administration at 1 mg/kg

[9] = organism: Rattus norvegicus; assay: Inhibition of wrap-restraint stress-induced colonic propulsion measured by the time required to expel a teflon ball inserted 3 cm into the rat colon; type: functional; conditions: read-out: ID50 (the source's name)
[10] = tested on: Rattus norvegicus; assay: Inhibitory dose causing inhibition of restraint stress induced defecation by oral administration ((inhibition percent at 1 mg/kg); type: functional; conditions: read-out: ID50 (the source's name)
[11] = tested on: Rattus norvegicus; assay: Inhibitory dose causing inhibition of increase in 5-HT induced defecation by sc administration at 1 to 10 mg/kg; type: functional; conditions: dose mg/kg 1-10, route subcutaneous, read-out: ID50 (the source's name)

| SMILES | Inhibition % at 1 mg/kg [1] [%] | ED50 [2] [µg/kg] | Ki [3] [nM] | ED50 [4] [µg/kg] | further results |
| --- | --- | --- | --- | --- | --- |
| CCCCn1c(=O)cc(C(=O)NC2CC3CCC(C2)N3C)c2ccccc21 (configuration not stated) | 47 | 370 | 60 |  |  |
| CN1C2CCC1CC(NC(=O)c1cc(=O)n(-c3ccccc3)c3ccccc13)C2 (configuration not stated) | 14 | 190 | 63 |  |  |
| CCCn1c(=O)cc(C(=O)OC2CC3CCC(C2)N3C)c2ccccc21 (configuration not stated) |  | 330 | 0.45 | 170 |  |
| CCCCCn1c(=O)cc(C(=O)OC2CC3CCC(C2)N3C)c2ccccc21 (configuration not stated) |  | 59 | 0.96 | 73 |  |
| Cc1nc2ccccc2c(O)c1C(=O)NC1CC2CCC(C1)N2C (configuration not stated) |  | 15 | 7.2 |  | Inhibition % at 1 mg/kg [5]: 41% |
| CN1C2CCC1CC(OC(=O)c1cc(=O)n(C)c3ccccc13)C2 (configuration not stated) | 47 | 180 | 2.6 |  |  |
| CN1C2CCC1CC(NC(=O)c1cnc3ccccc3c1O)C2 (configuration not stated) |  | 0.1 | 1.5 | 1400 | ED50 [6]: 790 µg/kg; ED50 [7]: 690 µg/kg; ED50 [8]: 53 µg/kg; ED50 [9]: 1800 µg/kg |
| CC(C)Cc1cc(C(=O)OC2CC3CCC(C2)N3C)c2ccccc2n1 (configuration not stated) |  | 5.6 | 0.69 |  | Inhibition % at 1 mg/kg [5]: 28% |
| CC(C)COc1cc(C(=O)OC2CC3CCC(C2)N3C)c2ccccc2n1 (configuration not stated) |  | 240 | 0.44 |  | ED50 [10]: 36000 µg/kg |
| CC(C)Oc1cc(C(=O)NC2CC3CCC(C2)N3C)c2ccccc2n1 (configuration not stated) |  | 1860 | 53 | 39000 |  |
| CC(C)Cn1c(=O)cc(C(=O)OC2CC3CCC(C2)N3C)c2ccccc21 (configuration not stated) |  | 33 | 0.47 | 13 | ED50 [6]: 1400 µg/kg; ED50 [7]: 18 µg/kg; ED50 [8]: 21 µg/kg; ED50 [9]: 10 µg/kg |
| COc1cc(C(=O)OC2CC3CCC(C2)N3C)c2ccccc2n1 (configuration not stated) |  | 420 | 0.58 | 45000 |  |
| CN1C2CCC1CC(OC(=O)c1cnc3ccccc3c1O)C2 (configuration not stated) |  | 1.7 | 6.1 |  | Inhibition % at 1 mg/kg [5]: 13% |
| CCCCCCOc1cc(C(=O)OC2CC3CCC(C2)N3C)c2ccccc2n1 (configuration not stated) | 23 | 7680 | 3.2 |  |  |
| CCCCCOc1cc(C(=O)OC2CC3CCC(C2)N3C)c2ccccc2n1 (configuration not stated) |  | 1130 | 0.86 | 30000 |  |
| CCCCOc1cc(C(=O)OC2CC3CCC(C2)N3C)c2ccccc2n1 (configuration not stated) | 64 | 200 | 0.39 |  |  |
| CCCCOc1cc(C(=O)NC2CC3CCC(C2)N3C)c2ccccc2n1 (configuration not stated) | 43 | 540 | 19 |  |  |

| SMILES | Inhibition % at 1 mg/kg [1] [%] | ED50 [2] [µg/kg] | Ki [3] [nM] | ED50 [4] [µg/kg] | further results |
| --- | --- | --- | --- | --- | --- |
| CN1C2CCC1CC(OC(=O)c1cc(=O)n(-c3ccccc3)c3ccccc13)C2 (configuration not stated) | 59 | 44 | 0.51 |  |  |
| CCCn1c(=O)cc(C(=O)NC2CC3CCC(C2)N3C)c2ccccc21 (configuration not stated) | 12 | 350 | 67 |  |  |
| CN1C2CCC1CC(OC(=O)c1cc(-c3ccccc3)nc3ccccc13)C2 (configuration not stated) |  | 340 | 71 |  |  |
| Cc1nccn1CC1CCc2c(c3ccccc3n2C)C1=O (configuration not stated) [ONDANSETRON] |  |  |  | 27 | ED50 [6]: 1400 µg/kg; ED50 [8]: 310 µg/kg; ED50 [9]: 1600 µg/kg; ED50 [11]: 530 µg/kg |
| CN1C2CCC1CC(OC(=O)c1cc(=O)n(Cc3ccccc3)c3ccccc13)C2 (configuration not stated) | 22 | 150 | 1.3 |  |  |
| Cn1cc(C(=O)C2CCc3nc[nH]c3C2)c2ccccc21 (configuration not stated) |  | 0.089 | 0.071 | 5.2 | ED50 [6]: 1100 µg/kg; ED50 [7]: 13 µg/kg; ED50 [8]: 5.1 µg/kg; ED50 [9]: 69 µg/kg |
| CC(C)n1c(=O)cc(C(=O)OC2CC3CCC(C2)N3C)c2ccccc21 (configuration not stated) |  | 81 | 0.32 | 40 |  |
| CCCCn1c(=O)c(C(=O)NC2CC3CCC(C2)N3C)c(O)c2cccnc21 (configuration not stated) |  | 290 | 6.4 |  | Inhibition % at 1 mg/kg [5]: 35% |
| CCCCCCn1c(=O)cc(C(=O)OC2CC3CCC(C2)N3C)c2ccccc21 (configuration not stated) |  | 86 | 1.1 | 66 |  |
| CCn1c(=O)cc(C(=O)OC2CC3CCC(C2)N3C)c2ccccc21 (configuration not stated) |  | 22 | 1.1 | 52 |  |
| CN1C2CCC1CC(NC(=O)c1c(O)c3ccccc3n(-c3ccccc3)c1=O)C2 (configuration not stated) |  | 73 | 1.4 |  | Inhibition % at 1 mg/kg [5]: 48% |
| CCCCn1c(=O)c(C(=O)NC2CC3CCC(C2)N3C)c(O)c2ccccc21 (configuration not stated) |  | 290 | 0.48 |  | Inhibition % at 1 mg/kg [5]: 61% |
| CCCCn1c(=O)cc(C(=O)OC2CC3CCC(C2)N3C)c2ccccc21 (configuration not stated) |  | 41 | 0.68 | 140 |  |
| CC(C)CCn1c(=O)cc(C(=O)OC2CC3CCC(C2)N3C)c2ccccc21 (configuration not stated) |  | 59 | 1.5 | 41 |  |
| CCOc1cc(C(=O)OC2CC3CCC(C2)N3C)c2ccccc2n1 (configuration not stated) | 36 | 70 | 0.88 |  |  |
| CCCOc1cc(C(=O)NC2CC3CCC(C2)N3C)c2ccccc2n1 (configuration not stated) | 29 | 1540 | 42 |  |  |
